# Key:
# Assay type in all cases: cell-based
# HCC827 cells = experiment: Cell growth inhibition (CellTiter-Glo, 3 days) in HCC827; conditions: Homo sapiens, 72 h, 3 days after administration
# In short: (§1)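 HCC827 cells in RPMI/10% FBS and A431 cells in DMEM/10% FBS were seeded at 5000 cells/well and left overnight. Compound was then added over a concentration range for 3 days of incubation, and viability was read by CellTiter-Glo luminescence.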
# A431 cells = experiment: Cell growth inhibition (CellTiter-Glo, 3 days) in A431; conditions: Homo sapiens, A-431, 72 h, 3 days after administration
# In short: as §1
# [1] = test system: HCC827-ASV cells (human EGFR exon 20 insertion mutant A769_D770insASV); experiment: Cell growth inhibition (CellTiter-Glo, 3 days) in HCC827-ASV; conditions: 72 h, 3 days after administration
# In short: (§2)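 HCC827 cells lentivirally transduced with codon-optimized ASV or YVMA insertion mutants were seeded at 5000 cells/well in RPMI with 10% FBS and incubated overnight. Compound was added at various concentrations from a 10× stock in medium, with 3 days' incubation. Viability read by CellTiter-Glo luminescence.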
# [2] = test system: HCC827-SVD cells (human EGFR exon 20 insertion mutant D770_N771 insSVD); experiment: Cell growth inhibition (CellTiter-Glo, 3 days) in HCC827-SVD; conditions: 72 h, 3 days after administration
# In short: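 HCC827 cells carrying lentiviral codon-optimized EGFR D770_N771 insSVD, with endogenous EGFR knocked out by CRISPR (single clone), seeded at 5000 cells/well in RPMI with 10% FBS. Viability read by CellTiter-Glo luminescence.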
# [3] = test system: HCC827-YVMA cells (human ERBB2 exon20 insertion mutant A775_G776ins YVMA); experiment: Cell growth inhibition (CellTiter-Glo, 3 days) in HCC827-YVMA; conditions: 72 h, 3 days after administration
# In short: as §2
GI50 (HCC827 cells) [nM],GI50 (A431 cells) [nM],GI50 [1] [nM],GI50 [2] [nM],GI50 [3] [nM],SMILES
60 to 100,300 to 600,< 30,< 30,< 30,"C=CC(=O)N1CCC(Nc2cc3c(Nc4ccc(Oc5ccnc(-c6nccs6)c5)cc4F)ncnc3cc2OC)CC1 [Example 43, 1-(4-((4-((2-fluoro-4-((2-(thiazol-2-yl)pyridin-4-yl)oxy)phenyl)amino)-7-methoxyquinazolin-6-yl)amino)piperidin-1-yl)prop-2-en-1-one]"
100 to 300,300 to 600,< 30,60 to 100,60 to 100,"C=CC(=O)N1CCC(Nc2cc3c(Nc4ccc(Oc5ccnc(-c6ccn[nH]6)c5)cc4F)ncnc3cc2OC)CC1 [Example 45, 1-(4-((4-((4-((2-(1H-pyrazol-5-yl)pyridin-4-yl)oxy)-2-fluorophenyl)amino)-7-methoxyquinazolin-6-yl)amino)piperidin-1-yl)prop-2-en-1-one]"
30 to 60,300 to 600,< 30,30 to 60,< 30,"C=CC(=O)N1CCC(Nc2cc3c(Nc4ccc(Oc5ccn(-c6ccnc(OC)n6)n5)cc4F)ncnc3cc2OC)CC1 [Example 47, 1-(4-((4-((2-fluoro-4-((1-(2-methoxypyrimidin-4-yl)-1H-pyrazol-3-yl)oxy)phenyl)amino)-7-methoxyquinazolin-6-yl)amino)piperidin-1-yl)prop-2-en-1-one]"
60 to 100,60 to 100,30 to 60,30 to 60,30 to 60,"C=CC(=O)N1CCC(Nc2cc3c(Nc4ccc(Oc5ccn(-c6ccc(N(C)C)nn6)n5)cc4F)ncnc3cc2OC)CC1 [Example 48, 1-(4-((4-((4-((1-(6-(dimethylamino)pyridazin-3-yl)-1H-pyrazol-3-yl)oxy)-2-fluorophenyl)amino)-7-methoxyquinazolin-6-yl)amino)piperidin-1-yl)prop-2-en-1-one]"
60 to 100,100 to 300,30 to 60,30 to 60,30 to 60,"C=CC(=O)N1CCC(Nc2cc3c(Nc4ccc(Oc5ccn(-c6ccc(OC)nn6)n5)cc4F)ncnc3cc2OC)CC1 [Example 50, 1-(4-((4-((2-fluoro-4-((1-(6-methoxypyridazin-3-yl)-1H-pyrazol-3-yl)oxy)phenyl)amino)-7-methoxyquinazolin-6-yl)amino)piperidin-1-yl)prop-2-en-1-one]"
30 to 60,100 to 300,< 30,< 30,< 30,"C=CC(=O)N1CCC(Nc2cc3c(Nc4ccc(Oc5nc(-c6cnc(OC)nc6)cs5)cc4F)ncnc3cc2OC)CC1 [Example 53, 1-(4-((4-((2-fluoro-4-((4-(2-methoxypyrimidin-5-yl)thiazol-2-yl)oxy)phenyl)amino)-7-methoxyquinazolin-6-yl)amino)piperidin-1-yl)prop-2-en-1-one]"
< 30,100 to 300,< 30,< 30,< 30,"C=CC(=O)N1CCC(Nc2cc3c(Nc4ccc(Oc5ccn(-c6cnc(OC)nc6)n5)c(F)c4)ncnc3cc2OC)CC1 [Example 54, 1-(4-((4-((3-fluoro-4-((1-(2-methoxypyrimidin-5-yl)-1H-pyrazol-3-yl)oxy)phenyl)amino)-7-methoxyquinazolin-6-yl)amino)piperidin-1-yl)prop-2-en-1-one]"
< 30,100 to 300,< 30,< 30,< 30,"C=CC(=O)N1CCC(Nc2cc3c(Nc4ccc(Oc5nc(-c6ccc(OC)nc6)cs5)cc4F)ncnc3cc2OC)CC1 [Example 55, 1-(4-((4-((2-fluoro-4-((4-(6-methoxypyridin-3-yl)thiazol-2-yl)oxy)phenyl)amino)-7-methoxyquinazolin-6-yl)amino)piperidin-1-yl)prop-2-en-1-one]"
30 to 60,< 30,< 30,< 30,< 30,"C=CC(=O)N1CCC(Nc2cc3c(Nc4ccc(Oc5nc(-c6ccc(OC)nn6)cs5)cc4F)ncnc3cc2OC)CC1 [Example 56, 1-(4-((4-((2-fluoro-4-((4-(6-methoxypyridazin-3-yl)thiazol-2-yl)oxy)phenyl)amino)-7-methoxyquinazolin-6-yl)amino)piperidin-1-yl)prop-2-en-1-one]"
60 to 100,300 to 600,60 to 100,60 to 100,60 to 100,"C=CC(=O)N1CCC(Nc2cc3c(Nc4ccc(Oc5ccn(-c6cccc(OC)n6)n5)cc4F)ncnc3cc2OC)CC1 [Example 58, 1-(4-((4-((2-fluoro-4-((1-(6-methoxypyridin-2-yl)-1H-pyrazol-3-yl)oxy)phenyl)amino)-7-methoxyquinazolin-6-yl)amino)piperidin-1-yl)prop-2-en-1-one]"
60 to 100,100 to 300,30 to 60,60 to 100,30 to 60,"C=CC(=O)N1CCC(Nc2cc3c(Nc4ccc(Oc5ccn(-c6ccc(OC)cn6)n5)cc4F)ncnc3cc2OC)CC1 [Example 59, 1-(4-((4-((2-fluoro-4-((1-(5-methoxypyridin-2-yl)-1H-pyrazol-3-yl)oxy)phenyl)amino)-7-methoxyquinazolin-6-yl)amino)piperidin-1-yl)prop-2-en-1-one]"
30 to 60,60 to 100,60 to 100,30 to 60,30 to 60,"C=CC(=O)N1CCC(Nc2cc3c(Nc4ccc(Oc5ccn(-c6cnc(C)c(F)c6)n5)c(F)c4)ncnc3cc2OC)CC1 [Example 86, 1-(4-((4-((3-fluoro-4-((1-(5-fluoro-6-methylpyridin-3-yl)-1H-pyrazol-3-yl)oxy)phenyl)amino)-7-methoxyquinazolin-6-yl)amino)piperidin-1-yl)prop-2-en-1-one]"
30 to 60,≥ 1000,60 to 100,100 to 300,30 to 60,"C=CC(=O)N1CCC(Nc2cc3c(Nc4ccc(Oc5ncc(-c6cnc(C)c(F)c6)s5)cc4F)ncnc3cc2OC)CC1 [Example 88, 1-(4-((4-((2-fluoro-4-((5-(5-fluoro-6-methylpyridin-3-yl)thiazol-2-yl)oxy)phenyl)amino)-7-methoxyquinazolin-6-yl)amino)piperidin-1-yl)prop-2-en-1-one]"
30 to 60,600 to 1000,< 30,< 30,< 30,"C=CC(=O)N1CCC(Nc2cc3c(Nc4ccc(Oc5ccn(-c6ccc(C)nc6F)n5)cc4F)ncnc3cc2OC)CC1 [Example 89, 1-(4-((4-((2-fluoro-4-((1-(2-fluoro-6-methylpyridin-3-yl)-1H-pyrazol-3-yl)oxy)phenyl)amino)-7-methoxyquinazolin-6-yl)amino)piperidin-1-yl)prop-2-en-1-one]"
60 to 100,100 to 300,100 to 300,60 to 100,60 to 100,"C=CC(=O)N1CCC(Nc2cc3c(Nc4ccc(Oc5ccn(-c6cnc(OC)c(F)c6)n5)cc4F)ncnc3cc2OC)CC1 [Example 90, 1-(4-((4-((2-fluoro-4-((1-(5-fluoro-6-methoxypyridin-3-yl)-1H-pyrazol-3-yl)oxy)phenyl)amino)-7-methoxyquinazolin-6-yl)amino)piperidin-1-yl)prop-2-en-1-one]"
100 to 300,100 to 300,60 to 100,30 to 60,100 to 300,"C=CC(=O)N1CCC(Nc2cc3c(Nc4ccc(Oc5ccn(-c6cnc7ccccc7c6)n5)cc4F)ncnc3cc2OC)CC1 [Example 91, 1-(4-((4-((2-fluoro-4-((1-(quinolin-3-yl)-1H-pyrazol-3-yl)oxy)phenyl)amino)-7-methoxyquinazolin-6-yl)amino)piperidin-1-yl)prop-2-en-1-one]"
60 to 100,100 to 300,< 30,< 30,< 30,"C=CC(=O)N1CCC(Nc2cc3c(Nc4ccc(Oc5ccn(-c6cnc(C)nc6)n5)cc4F)ncnc3cc2OC)CC1 [Example 92, 1-(4-((4-((2-fluoro-4-((1-(2-methylpyrimidin-5-yl)-1H-pyrazol-3-yl)oxy)phenyl)amino)-7-methoxyquinazolin-6-yl)amino)piperidin-1-yl)prop-2-en-1-one]"
60 to 100,≥ 1000,30 to 60,60 to 100,30 to 60,"C=CC(=O)N1CCC(Nc2cc3c(Nc4ccc(Oc5ccn(-c6ccc(C)c(F)n6)n5)cc4F)ncnc3cc2OC)CC1 [Example 93, 1-(4-((4-((2-fluoro-4-((1-(6-fluoro-5-methylpyridin-2-yl)-1H-pyrazol-3-yl)oxy)phenyl)amino)-7-methoxyquinazolin-6-yl)amino)piperidin-1-yl)prop-2-en-1-one]"
30 to 60,≥ 1000,30 to 60,100 to 300,30 to 60,"C=CC(=O)N1CCC(Nc2cc3c(Nc4ccc(Oc5nc(-c6cnc(C)c(F)c6)cs5)cc4F)ncnc3cc2OC)CC1 [Example 94, 1-(4-((4-((2-fluoro-4-((4-(5-fluoro-6-methylpyridin-3-yl)thiazol-2-yl)oxy)phenyl)amino)-7-methoxyquinazolin-6-yl)amino)piperidin-1-yl)prop-2-en-1-one]"
